Test results: ChEMBL document CHEMBL1201862, “PubChem BioAssay data set” (2004)
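Values below derive from 48-hour exposures of cells grown in 96-well plates, with endpoints linearly interpolated between the two concentrations bracketing the appropriate inhibition level. At the GI50, growth is halved.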 Activity calls are given as the source filed them. No stated cut-off is given here; in the data, active = GI50 up to about 1.1 µM and inactive = higher.

Assays:
Experiment in all cases: DTP human tumour cell line panel, 48 h
SN12C = system: SN12C
HCC 2998 = system: HCC 2998
SF-268 = system: SF-268
DU-145 = system: DU-145
MDA-MB-435 = system: MDA-MB-435
CCRF-CEM = system: CCRF-CEM
RPMI-8226 = system: RPMI-8226
Malme-3M = system: Malme-3M
NCI-H23 = system: NCI-H23
MDA-MB-231 = system: MDA-MB-231
HL-60 = system: HL-60
UACC-62 = system: UACC-62
MDA-N = system: MDA-N
TK-10 = system: TK-10
MOLT-4 = system: MOLT-4
PC-3 = system: PC-3
NCI-H460 = system: NCI-H460
A498 = system: A498
NCI-H522 = system: NCI-H522
SF-539 = system: SF-539
786-0 = system: 786-0
LOX IMVI = system: LOX IMVI
SK-MEL-2 = system: SK-MEL-2
SNB-19 = system: SNB-19
OVCAR-5 = system: OVCAR-5
NCI/ADR-RES = system: NCI/ADR-RES
ACHN = system: ACHN
UACC-257 = system: UACC-257
RXF 393 = system: RXF 393
MCF7 = system: MCF7
SK-MEL-5 = system: SK-MEL-5
SF-295 = system: SF-295
OVCAR-4 = system: OVCAR-4
COLO 205 = system: COLO 205
IGROV-1 = system: IGROV-1
SK-MEL-28 = system: SK-MEL-28
EKVX = system: EKVX
HCT-116 = system: HCT-116
U-251 = system: U-251
SW-620 = system: SW-620
SK-OV-3 = system: SK-OV-3
BT-549 = system: BT-549
HOP-62 = system: HOP-62
Hs-578T = system: Hs-578T
OVCAR-8 = system: OVCAR-8
HCT-15 = system: HCT-15
OVCAR-3 = system: OVCAR-3
M14 = system: M14
CAKI-1 = system: CAKI-1
KM12 = system: KM12
A549 = system: A549
T47D = system: T47D
HT-29 = system: HT-29
SR = system: SR
HOP-92 = system: HOP-92
K562 = system: K562
SNB-75 = system: SNB-75
UO-31 = system: UO-31
NCI-H226 = system: NCI-H226

## CC1(C)O[C@H]([C@H](O)c2nnc3ccc(Cl)nn23)[C@@H]([C@H]2COC(C)(C)O2)O1
SN12C
  GI50: > 100 µM (inactive)
HCC 2998
  GI50: > 100 µM (inactive)
SF-268
  GI50: > 100 µM (inactive)
DU-145
  GI50: > 100 µM (inactive)
MDA-MB-435
  GI50: > 100 µM (inactive)
CCRF-CEM
  GI50: > 100 µM (inactive)
RPMI-8226
  GI50: > 100 µM (inactive)
Malme-3M
  GI50: > 100 µM (inactive)
NCI-H23
  GI50: > 100 µM (inactive)
MDA-MB-231
  GI50: > 100 µM (inactive)
HL-60
  GI50: > 100 µM (inactive)
UACC-62
  GI50: > 100 µM (inactive)
MDA-N
  GI50: > 100 µM (inactive)
TK-10
  GI50: > 100 µM (inactive)
MOLT-4
  GI50: > 100 µM (inactive)
PC-3
  GI50: > 100 µM (inactive)
NCI-H460
  GI50: > 100 µM (inactive)
A498
  GI50: > 100 µM (inactive)
NCI-H522
  GI50: > 100 µM (inactive)
SF-539
  GI50: > 100 µM (inactive)
786-0
  GI50: > 100 µM (inactive)
LOX IMVI
  GI50: > 100 µM (inactive)
SK-MEL-2
  GI50: > 100 µM (inactive)
SNB-19
  GI50: > 100 µM (inactive)
OVCAR-5
  GI50: > 100 µM (inactive)
NCI/ADR-RES
  GI50: > 100 µM (inactive)
ACHN
  GI50: > 100 µM (inactive)
UACC-257
  GI50: > 100 µM (inactive)
RXF 393
  GI50: > 100 µM (inactive)
MCF7
  GI50: > 100 µM (inactive)
SK-MEL-5
  GI50: > 100 µM (inactive)
SF-295
  GI50: > 100 µM (inactive)
OVCAR-4
  GI50: > 100 µM (inactive)
COLO 205
  GI50: > 100 µM (inactive)
IGROV-1
  GI50: > 100 µM (inactive)
SK-MEL-28
  GI50: > 100 µM (inactive)
EKVX
  GI50: > 100 µM (inactive)
HCT-116
  GI50: > 100 µM (inactive)
U-251
  GI50: > 100 µM (inactive)
SW-620
  GI50: > 100 µM (inactive)
SK-OV-3
  GI50: > 100 µM (inactive)
BT-549
  GI50: > 100 µM (inactive)
HOP-62
  GI50: > 100 µM (inactive)
Hs-578T
  GI50: > 100 µM (inactive)
OVCAR-8
  GI50: > 100 µM (inactive)
HCT-15
  GI50: > 100 µM
OVCAR-3
  GI50: > 100 µM (inactive)
M14
  GI50: > 100 µM (inactive)
CAKI-1
  GI50: > 100 µM (inactive)
KM12
  GI50: > 100 µM (inactive)
A549
  GI50: > 100 µM (inactive)
T47D
  GI50: > 100 µM (inactive)
HT-29
  GI50: > 100 µM (inactive)

## [N-]=[N+]=NC1=CC(=O)c2cccc3cccc1c23
SN12C
  GI50: 43.3 µM (inactive)
HCC 2998
  GI50: 38 µM (inactive)
SF-268
  GI50: 29.9 µM (inactive)
DU-145
  GI50: 33.4 µM (inactive)
MDA-MB-435
  GI50: 40 µM (inactive)
CCRF-CEM
  GI50: 10.6 µM (inactive)
RPMI-8226
  GI50: 56.6 µM (inactive)
Malme-3M
  GI50: 31.4 µM (inactive)
NCI-H23
  GI50: 20.7 µM (inactive)
MDA-MB-231
  GI50: 73.8 µM (inactive)
HL-60
  GI50: > 100 µM (inactive)
UACC-62
  GI50: 16.5 µM (inactive)
MDA-N
  GI50: 46.2 µM (inactive)
TK-10
  GI50: 44.4 µM (inactive)
MOLT-4
  GI50: 10.7 µM (inactive)
PC-3
  GI50: 16.6 µM (inactive)
NCI-H460
  GI50: 31.1 µM (inactive)
A498
  GI50: 12.2 µM (inactive)
SF-539
  GI50: 31 µM (inactive)
786-0
  GI50: 31.9 µM (inactive)
LOX IMVI
  GI50: 17.3 µM (inactive)
SNB-19
  GI50: 36.5 µM (inactive)
OVCAR-5
  GI50: 49.3 µM (inactive)
SR
  GI50: 67.3 µM (inactive)
ACHN
  GI50: 29.2 µM (inactive)
UACC-257
  GI50: 31.7 µM (inactive)
RXF 393
  GI50: 16.8 µM (inactive)
MCF7
  GI50: 34.2 µM (inactive)
SK-MEL-5
  GI50: 12 µM (inactive)
SF-295
  GI50: 24.9 µM (inactive)
OVCAR-4
  GI50: 56.9 µM (inactive)
COLO 205
  GI50: 49.7 µM (inactive)
HOP-92
  GI50: 18.4 µM (inactive)
IGROV-1
  GI50: 15.8 µM (inactive)
SK-MEL-28
  GI50: 33.3 µM (inactive)
HCT-116
  GI50: 23.5 µM (inactive)
U-251
  GI50: 20.1 µM (inactive)
SW-620
  GI50: 17 µM (inactive)
SK-OV-3
  GI50: 15.3 µM (inactive)
BT-549
  GI50: 27.1 µM (inactive)
HOP-62
  GI50: 15.7 µM (inactive)
Hs-578T
  GI50: 17.9 µM (inactive)
K562
  GI50: 26.2 µM (inactive)
OVCAR-3
  GI50: 31.7 µM (inactive)
SNB-75
  GI50: 13.5 µM (inactive)
UO-31
  GI50: 24.9 µM (inactive)
M14
  GI50: 18.4 µM (inactive)
CAKI-1
  GI50: 22.2 µM (inactive)
KM12
  GI50: 85.9 µM (inactive)
A549
  GI50: 32.4 µM (inactive)
T47D
  GI50: 22.3 µM (inactive)
HT-29
  GI50: 34.6 µM (inactive)

## C[N+](C)(C)C1=NNC2=Nc3ccccc3SC2=C1
SN12C
  GI50: 21.9 µM (inactive)
HCC 2998
  GI50: 24.4 µM (inactive)
SF-268
  GI50: 35 µM (inactive)
DU-145
  GI50: 27.6 µM (inactive)
MDA-MB-435
  GI50: 22.2 µM (inactive)
CCRF-CEM
  GI50: 11.7 µM (inactive)
RPMI-8226
  GI50: 12.9 µM (inactive)
Malme-3M
  GI50: 19.8 µM (inactive)
NCI-H23
  GI50: 28.9 µM (inactive)
MDA-MB-231
  GI50: 14.6 µM (inactive)
HL-60
  GI50: 54.1 µM (inactive)
UACC-62
  GI50: 17 µM (inactive)
MDA-N
  GI50: 17.8 µM (inactive)
TK-10
  GI50: 37.1 µM (inactive)
MOLT-4
  GI50: 13 µM (inactive)
PC-3
  GI50: 15.1 µM (inactive)
NCI-H460
  GI50: 19 µM (inactive)
A498
  GI50: 26.4 µM (inactive)
NCI-H522
  GI50: 15.9 µM (inactive)
786-0
  GI50: 20.1 µM (inactive)
LOX IMVI
  GI50: 18.8 µM (inactive)
SK-MEL-2
  GI50: 14.1 µM (inactive)
SNB-19
  GI50: 26.5 µM (inactive)
OVCAR-5
  GI50: 17.7 µM (inactive)
NCI/ADR-RES
  GI50: 16.1 µM (inactive)
ACHN
  GI50: 16 µM (inactive)
UACC-257
  GI50: 23 µM (inactive)
RXF 393
  GI50: 20.4 µM (inactive)
MCF7
  GI50: 18.6 µM (inactive)
SK-MEL-5
  GI50: 15.1 µM (inactive)
SF-295
  GI50: 9.42 µM (inactive)
OVCAR-4
  GI50: 19.7 µM (inactive)
COLO 205
  GI50: 15 µM (inactive)
HOP-92
  GI50: 12.1 µM (inactive)
IGROV-1
  GI50: 17 µM (inactive)
SK-MEL-28
  GI50: 19.4 µM (inactive)
EKVX
  GI50: 4.92 µM (inactive)
HCT-116
  GI50: 13.9 µM (inactive)
U-251
  GI50: 18.6 µM (inactive)
SW-620
  GI50: 24.4 µM (inactive)
SK-OV-3
  GI50: 23.6 µM (inactive)
BT-549
  GI50: 28.6 µM (inactive)
HOP-62
  GI50: 22.8 µM (inactive)
Hs-578T
  GI50: 30 µM (inactive)
K562
  GI50: 17.9 µM (inactive)
NCI-H226
  GI50: 11.8 µM (inactive)
OVCAR-8
  GI50: 18.4 µM (inactive)
HCT-15
  GI50: 17.5 µM
OVCAR-3
  GI50: 19.3 µM (inactive)
UO-31
  GI50: 15 µM (inactive)
M14
  GI50: 15.7 µM (inactive)
CAKI-1
  GI50: 32.3 µM (inactive)
KM12
  GI50: 23.9 µM (inactive)
A549
  GI50: 23.9 µM (inactive)
T47D
  GI50: 4.11 µM (inactive)
HT-29
  GI50: 13.5 µM (inactive)
